The values below come from patent US9428465B2, “Acid ceramidase inhibitors and their use as medicaments” (FONDAZIONE ISTITUTO ITALIANO DI TECHNOLOGIA, priority 2012, dated 2016).

Each structure is given as a SMILES string. pIC50: −log10 of the molar value.

Sequence of human acid ceramidase (hAC) (Q13510 143-395): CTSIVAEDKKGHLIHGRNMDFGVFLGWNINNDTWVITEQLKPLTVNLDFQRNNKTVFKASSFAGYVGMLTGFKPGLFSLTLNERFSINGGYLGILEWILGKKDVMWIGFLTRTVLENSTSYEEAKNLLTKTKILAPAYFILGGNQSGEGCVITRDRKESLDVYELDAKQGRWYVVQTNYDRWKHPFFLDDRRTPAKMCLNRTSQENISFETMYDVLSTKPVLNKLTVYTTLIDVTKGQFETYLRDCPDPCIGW
Sequence of human acid ceramidase (hAC) (Q13510 22-142): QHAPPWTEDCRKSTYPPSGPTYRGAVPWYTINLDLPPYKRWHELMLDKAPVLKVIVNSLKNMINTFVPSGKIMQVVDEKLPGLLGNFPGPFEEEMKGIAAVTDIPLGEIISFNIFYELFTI
Sequence of rat acid ceramidase (rAC) (Q6P7S1 142-394): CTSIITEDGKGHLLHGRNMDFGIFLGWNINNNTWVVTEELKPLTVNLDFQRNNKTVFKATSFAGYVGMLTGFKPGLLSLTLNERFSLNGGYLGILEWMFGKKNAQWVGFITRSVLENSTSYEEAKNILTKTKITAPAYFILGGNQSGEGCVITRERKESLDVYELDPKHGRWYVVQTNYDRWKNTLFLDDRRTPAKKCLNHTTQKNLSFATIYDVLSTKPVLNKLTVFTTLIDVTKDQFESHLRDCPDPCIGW
Sequence of rat acid ceramidase (rAC) (Q6P7S1 21-141): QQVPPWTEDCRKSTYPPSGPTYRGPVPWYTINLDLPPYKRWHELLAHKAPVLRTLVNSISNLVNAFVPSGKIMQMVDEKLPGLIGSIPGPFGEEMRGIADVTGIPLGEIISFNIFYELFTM

One experiment has as its system SW403 cells. Put plainly: SW403 cell viability, MTT assay. In kind it is cell-based, human. Conditions: sub-chronic treatment 72 hrs; compounds 30 μM, 5FU 300 nM. Here is the method: Cells were seeded in 12- or 96-well plates in complete medium 24 hrs before treatment and then incubated for 24 hrs (single treatment) or 72 hrs (multiple treatments) with different drug concentrations in media without serum. Cell viability was then evaluated.
Alternatively, cell viability was assessed measuring mitochondrial functionality by the MIT assay, which is based on the reduction of the soluble tetrazolium salt MTT [(3-(4,5-dimethylthiazol-2-yl)-2,5-diphenyltetrazolium bromide] into insoluble formazan by mitochondria. Briefly, after treatment, cells were washed with PBS and incubated with 0.5 mg/ml, MTT for 2 hrs at room temperature, MTT reduction was quantified by absorbance at 570 nm using a UV-visible plate reader.
`O=c1[nH]cc(F)c(=O)[nH]1` [5-fluorouracil, reference compound]: the “SW403 cell viability (MTT assay)” value is “reduced cell viability”.

For a further experiment, the target named is human acid ceramidase (hAC) (Homo sapiens (Human), UniProt Q13510). The experiment can be described thus: Human acid ceramidase (hAC) activity assay, UPLC/MS of lauric acid. In kind it is biochemical. As to conditions: at 0.5 μM; read-out: hAC percent inhibition. Here is the method:
Human acid ceramidase (hAC) cDNA was purchased from Open Biosystem (clone ID 3923451) and subcloned in the mammalian expression vector pCDNA3.1, containing the neomycin resistance gene. The cell line HEK293 was transfected with hAC-pCDNA3.1 construct using JetPEI reagent (Polypus Transfection™, Illkirch, FR) following the manufacturer instructions. A stable cell line of hAC-overexpressing HEK293 was generated by selection with G418 (1 mg/ml) and cell clones were derived by limited dilution plating. hAC-expressing clones were analyzed by western blot.
Hek293 cells overexpressing hAC were suspended in 20 mM Tris HCl (pH 7.5) containing 0.32M sucrose, sonicated and centrifuged at 800×g for 15 min at 4° C. The supernatants were centrifuged again at 12,000×g for 30 min at 4° C. The pellets were suspended in phosphate-buffered saline (PBS) and subjected to 2 freeze-thaw cycles at −80° C. The suspensions were centrifuged at 105,000×g for 1 h at 4° C. The supernatants containing hAC were kept at −80° C. until use. Protein concentration was measured using the bicinchoninic acid (BCA) assay (Pierce).
A hAC protein preparation (10 μg) was preincubated with inhibitors (final DMSO concentration 1%) in assay buffer (100 mM sodium phosphate, 0.1% Nonidet P-40, 150 mM NaCl, 3 mM DTT, 100 mM sodium citrate, pH 4.5) for 30 min at 37° C. Reactions were started by the addition of 50 μM N-lauroyl ceramide (Nu-Chek Prep, Elysian, Minn.) and carried on for 30 min at 37° C. Reactions were stopped by addition of a mixture of chloroform/methanol (2:1, vol/vol) containing 1 nmol 11-lauroleic acid (NuChek Prep). The organic phases were collected, dried under nitrogen and analyzed by UPLC/MS (Acquity, Waters) in the negative-ion mode monitoring the reaction product (lauric acid, m/z=199) using 11-lauroleic acid as internal standard.
Lipids were eluted on an Acquity UPLC BEH C18 column (50 mm length, 2.1 mm i.d., 1.7 μm pore size, Waters) column at 0.5 mL-min^−1 for 1.5 min with a gradient of acetonitrile (CH3CN) and water, both containing 0.25% acetic acid and 5 mM ammonium acetate (70% to 100% CH3CN in 0.5 min, 100% CH3CN for 0.5 min, 70% CH3CN for 0.4 min). The column temperature was 40° C. Electrospray ionization (ESI) was in the negative mode, capillary voltage was 1 kV and cone voltage was 50 V. Nitrogen was used as drying gas at a flow rate of 500 L/h and at a temperature of 400° C.
The [M-H]^− ion was monitored in the selected-ion monitoring mode (m/z values: lauric acid 199, 11-lauroleic acid […]). Calibration curves were generated with authentic lauric acid (Nu Check Prep). Inhibition of acid ceramidase activity was calculated as reduction of lauric acid in the samples compared to vehicle controls. IC50 values were calculated by non-linear regression analysis of log [concentration]/inhibition curves using GraphPad Prism 5 (GraphPad Software Inc., CA, USA) applying a standard slope curve fitting.
The inhibition is how much of the control response was suppressed. Consider `O=C(NCCCCCc1ccc(F)cc1)n1ccc(=O)[nH]c1=O` [Example 34, N-[5-(4-fluorophenyl)pentyl]-2,4-dioxo-pyrimidine-1-carboxamide], for which the inhibition at 0.5 µM worked out at 99%.

Still in this experiment, the particulars now being: at 1 μM; read-out: hAC percent inhibition.
As to `CCCCCCNC(=O)n1cc(-c2ccc(F)cc2)c(=O)[nH]c1=O` [Example 18, 5-(4-fluorophenyl)-N-hexyl-2,4-dioxo-pyrimidine-1-carboxamide], the inhibition at 1 µM came to 74%.

Regarding `CCCCCCNC(=O)n1cc(-c2ccc(OC)cc2)c(=O)[nH]c1=O` [Example 19, N-hexyl-5-(4-methoxyphenyl)-2,4-dioxo-pyrimidine-1-carboxamide], the inhibition at 1 µM amounted to 52%.

Take `CCCCCCNC(=O)n1cc(-c2ccc(C)cc2)c(=O)[nH]c1=O` [Example 20, N-hexyl-2,4-dioxo-5-(p-tolyl)pyrimidine-1-carboxamide]: the inhibition at 1 µM was determined as 54%.

On to `CCCCCCNC(=O)n1cc(-c2ccc(C(F)(F)F)cc2)c(=O)[nH]c1=O` [Example 21, N-hexyl-2,4-dioxo-5-[4-(trifluoromethyl)phenyl]pyrimidine-1-carboxamide], for which the inhibition at 1 µM turned out to be 86%.

Consider `CCCCCCNC(=O)n1cc(-c2ccc3ccccc3c2)c(=O)[nH]c1=O` [Example 22, N-Hexyl-5-(2-naphthyl)-2,4-dioxo-pyrimidine-1-carboxamide], for which the inhibition at 1 µM was 64%.

For `CCCCCCNC(=O)n1cc(Br)c(=O)n(C)c1=O` [Example 25, 5-Bromo-N-hexyl-3-methyl-2,4-dioxo-pyrimidine-1-carboxamide], the inhibition at 1 µM is 96%.

With `CCCCCCNC(=O)n1cc(-c2ccccc2)c(=O)n(C(=O)OCC(C)C)c1=O` [Example 26, Isobutyl 3-(hexylcarbamoyl)-2,6-dioxo-5-phenyl-pyrimidine-1-carboxylate], the inhibition at 1 µM was determined as 100%.

`CCCCCCNC(=O)n1cc(Cl)c(=O)n(C(=O)OCC(C)C)c1=O` [Example 30, Isobutyl 5-chloro-3-(hexylcarbamoyl)-2,6-dioxo-pyrimidine-1-carboxylate]: the inhibition at 1 µM is 100%.

`CCCCCCNC(=O)n1cc(-c2cccnc2)c(=O)[nH]c1=O` [Example 31, N-hexyl-2,4-dioxo-5-(3-pyridyl)pyrimidine-1-carboxamide]: the inhibition at 1 µM was found to be 99%.

`O=C(NCCCCCc1ccccc1)n1ccc(=O)[nH]c1=O` [Example 33, 2,4-dioxo-N-(5-phenylpentyl)pyrimidine-1-carboxamide]: the inhibition at 1 µM was determined as 100%.

The experiment is the same for the next values; noted with them: human acid ceramidase, 50 μM N-lauroyl ceramide, pH 4.5.
As usually defined, the pIC50 is the negative decadic logarithm of the IC50, by convention in mol/L. As to `CCCCCCNC(=O)n1cc(-c2ccccc2)c(=O)[nH]c1=O` [Example 14, N-hexyl-2,4-dioxo-5-phenyl-pyrimidine-1-carboxamide], the pIC50 is 6.81.

As to `CCCCCCNC(=O)n1cc(Br)c(=O)n(C(=O)OC)c1=O` [Example 23, Methyl 5-bromo-3-(hexylcarbamoyl)-2,6-dioxo-pyrimidine-1-carboxylate], the pIC50 was 6.57. This pIC50 is 0.24 log units lower than that of the compound before.

For `CCCCCCNC(=O)n1cc(Br)c(=O)n(C(=O)OCC(C)C)c1=O` [Example 24, Isobutyl 5-bromo-3-(hexylcarbamoyl)-2,6-dioxo-pyrimidine-1-carboxylate], the pIC50 is 7.85.

A further experiment addresses rat acid ceramidase (rAC) (Rattus norvegicus (Rat), UniProt Q6P7S1). Put plainly: Rat acid ceramidase (rAC) enzymatic assay, LC/MS of lauric acid. In kind it is biochemical. Conditions: at 0.3 μM; read-out: rAC percent inhibition. Here is the method: A lysosomal rat acid ceramidase (rAC) protein preparation was obtained from cells stably expressing rAC resuspended in 20 mM Tris HCl (pH 7.5) with 0.32 M sucrose. Samples were sonicated and centrifuged at 800×g for 15 min at 4° C. Supernatants were then centrifuged at 12,000×g for 30 min at 4° C. Pellets were re-suspended in PBS pH 7.4 and subjected to 2 freeze-thaw cycles at −80° C. The suspension was finally centrifuged at 105,000×g for 1 hr at 4° C. and the supernatant containing rAC was then used in the enzymatic assay.
r-AC protein samples were pre-incubated with various concentrations of test compounds or vehicle control in 100 mM NaH2PO4/citrate buffer pH 4.5, 0.1% Nonidet P-40, 3 mM DTT for 30 min at 37° C. Samples were incubated with 100 μM N-lauroyl ceramide (Nu-Chek Prep, Elysian, Minn.) at 37° for 30 min. The reaction was stopped by addition of a mixture of chloroform/methanol (2:1 vol/vol) containing 1 nmol of heptadecanoic acid (HDA; NuChek Prep). The organic phases were collected, dried under nitrogen, and analyzed by LC/MS in the negative-ion mode using heptadecanoic acid (HDA) as internal standard (m/z=199 for lauric acid, m/z=269 for HDA). HDA was eluted on an XDB Eclipse C18 column isocratically at 2.2 mL/min for 1 min with a solvent mixture of 95% methanol and 5% water, both containing 0.25% acetic acid, and 5 mM ammonium acetate. The column temperature was 50° C. Electrospray ionization (ESI) was in the negative mode, capillary voltage was 4 kV, and fragmentor voltage was 100 V. Nitrogen was used as drying gas at a flow rate of 13 L/min and at a temperature of 350° C. Nebulizer pressure was set at 60 psi. We monitored [M-H]− in the selected-ion monitoring (SIM) mode using HDA as internal standard.
Inhibition of rAC activity was calculated as a reduction of lauric acid in the samples compared to vehicle controls. Median inhibitory concentration (IC50) values were calculated by non-linear regression analysis of log [concentration]/inhibition curves using. GraphPad Prism 5 (GraphPad Software, Inc., CA, USA) applying a standard slope curve fitting.
As to `O=C(NCCCCc1ccccc1)n1ccc(=O)[nH]c1=O` [Example 1, 2,4-dioxo-N-(4-phenylbutyl)pyrimidine-1-carboxamide], the inhibition at 0.3 µM was 65%.

The experiment is the same for the next values; noted with them: rat acid ceramidase, 100 μM N-lauroyl ceramide, pH 4.5.
The compound `CCCCCCNC(=O)n1cc(Cl)c(=O)[nH]c1=O` [Example 3, 5-Chloro-N-hexyl-2,4-dioxo-pyrimidine-1-carboxamide] had a pIC50 of 7.17.

`CCCCCCNC(=O)n1cc(CO)c(=O)[nH]c1=O` [Example 7, N-hexyl-5-(hydroxymethyl)-2,4-dioxo-pyrimidine-1-carboxamide] gave a pIC50 of 6.38.

Compound `CCCCCCNC(=O)n1cc(I)c(=O)[nH]c1=O` [Example 8, N-hexyl-5-iodo-2,4-dioxo-pyrimidine-1-carboxamide] had a pIC50 of 6.83.

`CCCCCCNC(=O)n1cc(OC)c(=O)[nH]c1=O` [Example 9, N-hexyl-5-methoxy-2,4-dioxo-pyrimidine-1-carboxamide] showed a pIC50 of 5.96. Against the preceding compound, the pIC50 is 0.87 log units lower.

On to `CCCCCCNC(=O)n1cc(N(C)Cc2ccccc2)c(=O)[nH]c1=O` [Example 10, 5-(benzyl(methyl)amino)-N-hexyl-2,4-dioxo-pyrimidine-1-carboxamide], for which the pIC50 is 5.26.

The compound `CCCCCCNC(=O)n1cc(NC)c(=O)[nH]c1=O` [Example 11, N-hexyl-5-methylamino-2,4-dioxo-pyrimidine-1-carboxamide] had a pIC50 of 5.47. Compared with the last compound, the pIC50 is 0.21 log units higher.

As for `CCCCCCNC(=O)n1cc(N2CCOCC2)c(=O)[nH]c1=O` [Example 12, N-hexyl-5-morpholino-2,4-dioxo-pyrimidine-1-carboxamide], the pIC50 was 6.06.

`CCCCCCNC(=O)n1cc(N2CCN(C)CC2)c(=O)[nH]c1=O` [Example 13, N-hexyl-5-(4-methylpiperazin-1-yl)-2,4-dioxo-pyrimidine-1-carboxamide] gave a pIC50 of 5.85.

As for `CCCCCCNC(=O)n1cc(C)c(=O)n(CC2CC2)c1=O` [Example 16, 3-(cyclopropylmethyl)-N-hexyl-5-methyl-2,4-dioxo-pyrimidine-1-carboxamide], the pIC50 was 7.40.

`CCCCCCCCNC(=O)n1cc(C(F)(F)F)c(=O)[nH]c1=O` [Example 32, N-octyl-2,4-dioxo-5-(trifluoromethyl)pyrimidine-1-carboxamide] showed a pIC50 of 8.15.
